Source: patent publication US5733904A, “Method for prevention and treatment of viral infectious diseases for viral suppression” (priority 1996, dated 1998)

What was measured:
HIV-1 = assay: Comparison of suppressive activity of HIV proliferation with FAS and other anti-HIV drugs (syncytium formation); format: cell-based; settings: for IC50: Human immunodeficiency virus 1, FIG. 5, approximate, read-out: 50% inhibitory concentration, syncytium formation
Experimental: Comparison of suppressive activity of HIV proliferation with FAS and other anti-HIV drugs.
Experiments were conducted by the same method as in Example 3.
The medicaments used in this experiment were compounds of the present invention (FAS, and a compound of formula [I] where R^1 is hydroxy as in the above-mentioned Japanese Patent Unexamined Publication No. 61-152658), ddI (Sigma Corp.) and AZT (Sigma Corp.) which are used as medicaments for the treatment of AIDS, and dextran sulfate (Sigma Corp.).

[1] = tested on: HIV-1 (LAV-1 strain) in MOLT-4 cells; assay: Inhibitory activity of HIV syncytia formation: HIV-1 acute-phase infection; format: cell-based; settings: for inhibition at 30 µM: Human immunodeficiency virus 1, MOLT-4, in concentrations of 30 μM, 48 hours; for inhibitory effects on syncytia formation: in concentrations of 2.0 μM
Experimental: a) Activity of the medicament on HIV-1 acute-phase infection:
Cells obtained by culturing MOLT-4 (American Type Culture Collection ATCC CRL-1582) in RPMI medium (GIBCO Corp.) containing 10% FBS (fetal bovine serum: GIBCO Corp.) (culture condition: 37° C., 5% CO2 /95% air) were prepared to aliquot number of cells (1×10^5 cells/50 μl). The cell suspension, 50 μl and the liquid preparation, 50 μl containing HIV-1 (LAV-1 strain, Wain-Hobson et al., Cell 40: 9-17, 1985) in RPMI medium with 10% FBS were put into each well of a 96 hole microplate and cultured for 48 hours (Infectious condition of MOLT-4 and HIV-1: M.O.I.=4.0).
Each compound was dissolved in RPMI medium containing 10% FBS at the final concentration as shown in FIG. 1 to prepare the medicament solution. The medicament solution, 100 μl was added to the mixture of MOLT-4 cell preparation and HIV-1 preparation at the time of mixing with MOLT-4 and HIV-1 to prepare the final volume of the liquid, 200 μl. The number of formed syncytia were microscopically counted.
Tested compounds were: FAS (fasudil hydrochloride, Chem. Pharm. Bull., 40 (3), 770-773, (1992)), C kinase inhibitor H-7 (1-5-isoquinolinylsulfonyl)-2-methyl-piperazine, Sigma Corp.), and calmodulin kinase II inhibitor KN-62 (1-(N,O-bis-[5-isoquinolinylsulfonyl]-N-methyl-L-tyrosyl)-4-phenyl-piperazine, Sigma Corp., Neuroscience Lett., 129, 47 (1991)) .
The control group without the compound was prepared by replacing the medicament solution, 100 μl.
Syncytium formation activity was calculated by comparing the syncytia formation in the test group to that of the control group in the following equation.
Syncytium formation activity=number of syncytia formed in the medicament-added group/number of syncytia formed in the no-medicament-added group.

[2] = tested on: Env (gp120) protein, HIV-1 infected MOLT-4 cells; assay: Suppressive action on expression of Env (gp120) protein on the surface of cells; format: cell-based; settings: FIG. 3; Env positive cells after 5 days
Experimental: (Suppressive action on expression of Env (gp120) protein on the surface of cells.)
Cells obtained by culturing MOLT-4 (culture condition: 37° C., 5% CO2 /95% air, RPMI medium (GIBCO Corp.) containing 10% FBS) were adjusted to a preferable number of cells (1×10^5 cells/50 μl ). The cell suspension, 50 μl, (infected with MOLT-4 and HIV-1: M.O.I.=1.0) was put in a 96 hole microplate and cultured for 1 hour to infect the cells.
A solution of the compound shown below, 100 μl, was added in each well and cultured for 5 days. The cultured solution was transferred into a plastic tube (Eppendorf Corp.) and centrifuged to collect the cells. The cells were treated with mouse anti-Env gp120 monoclonal antibody (Replingen Inc.) as a primary antibody and FITC (Fluorescein Isothiocyanate) labelled goat anti-mouse IgG (Cappel Corp.) as a secondary antibody to fluoresce. The number of fluorescent cells was fluoroscopically calculated by counting fluorescent cells according to an indirect fluorescent antibody technique (Techniques in HIV Research, Ed. A. Aldoriny and B. D. Walker, Stokton Press, New York, 1990).
Env positive cells (%) was calculated by the following equation:
Env positive cells (%)=(FITC) positive cells/total cells)×100
Compounds: FAS, H-7 and KN-62.
Control: solution without compound was used.

HIV = settings: Antiviral Res., 22: 273-283, 1993; cited from earlier work
[3] = tested on: HIV-1 (LAV-1) persistently infected MOLT-4 cells with non-infected MOLT-4 cells; assay: Inhibitory activity of HIV syncytia formation: HIV-1 chronic-phase infection; format: cell-based; settings: FIG. 2; 48 hours
Experimental: b) Activity of the medicament on HIV-1 chronic-phase infection:
Cells obtained by culturing MOLT-4 (culture condition: 37° C., 5% CO2 /95% air, RPMI medium (GIBCO Corp.) containing 10% FBS) were adjusted to a preferable number of cells (1×10^5 cells/50 μl). HIV-1 (LAV-1) preparation, 50 μl was added to the cell suspension, 50 μl and subjected to a mixing culture (infectious condition of HIV-1 to MOLT-4: M.O.I.=1). The infected cell mixture was cultured by exchanging a fresh culture medium every 3 days at a volume rate of 2:5. The culture was continued for more than 1 month to prepare persistent infected cells. The concentration of the persistent infected cells was adjusted to a preferable number of cells (1×10^5 cells/50 μl ) (the persistent infected cell preparation).
Cell preparation without infection was prepared by culturing MOLT-4 (culture condition: 37° C., 5% CO2 /95% air, RPMI medium (GIBCO Corp.) containing 10% FBS) and adjusting the concentration to a preferable number of cells (1×10^5 cells/50 μl).
The persistent infected cell preparation, 50 μl, was placed in the wells of a 96 hole microplate and the non-infected cell preparation, 50 μl, was added therein and cultured for 48 hours. Numbers of the formed syncytia were counted microscopically.
Each compound solution tested was added, 100 μl, at the time of mixing the persistent infected cell preparation with the non-infected cell preparation, to provide the final concentrations shown in FIG. 2 (medicament added test group).
The no-medicament-added group (control group) was prepared by replacing the compound solution, 100 μl.

[4] = tested on: Herpes simplex virus type I; assay: Inhibitory action for plaque formation of Herpes simplex virus type I; format: cell-based; settings: mean of two, control 51
Experimental: (§1) Experiments were performed according to a method described in Antiviral Chemistry and Chemotherapy, 5 (6), 366-371, 1994 and Experimental Virology, Ed. by NIH Japan alumni assoc., Maruzen Publ. 1982, p. 65-78 or p. 331-340.
(§2) Vero cells cultured in the medium (Dulbecco's modified MEM added with 10% FBS) were detached by trypsin (Sigma Corp.). The detached cells were suspended by 2×10^5 cells/ml in the same medium, and placed in the wells of a 48 hole plate. The plate was incubated at 37° C. under 5% CO2 for about one day to complete a full-sheet of the cells in all wells. After incubation, cultured supernatant was removed. A solution (50 μl) containing the compound diluted with 4-fold stepwise dilution by virus culture medium (MM: Dulbecco's modified MEM added with 2% FBS), was added thereto.
(§3) A viral solution, 50 μl, in which the number of virus (parainfluenza virus or Herpes simplex virus type I) was adjusted to about 50 pfu (plaque forming unit)/50 μl by MM, was added to each well. MM 400 μl containing 1% methylcellulose was added in each well to provide a compound-added test group. A control group was prepared by adding the viral culture medium without adding the test compound.
(§4) The groups were incubated at 37° C. under 5% CO2 for three days to form plaques and the number of plaques in each well was counted.
(§5) The test compounds were FAS, and the compound of formula [I] where R^1 is hydroxy. The final concentration of the compound in the solution was set to 100, 25, 6.3 and 1.6 μg/ml, respectively. Each test group included 2 wells and a mean of the plaque numbers was obtained.

rabbit platelets = assay: Platelet aggregation; format: cell-based, rabbit (male, Japanese white); settings: for Platelet aggregation rate, ADP: ADP 5 μM, control 66.3 ± 1.4; for Platelet aggregation rate, ADP / Platelet aggregation rate, Collagen: N=4, mean ± S.E.; for Platelet aggregation rate, Collagen: collagen 5 μg/ml, control 82.3 ± 1.6
Experimental: Rabbits (male, Japanese white, body weight 2-3 kg, Oriental Yeast Co.) were used. Blood was collected from an ear vein, a 1/10 volume of 3.8% sodium citrate was added thereto, and the mixture was centrifuged at 1,000 rpm for 10 minutes.
The supernatant separated by this action was designated platelet rich plasma (PRP), and the precipitate was further centrifuged at 3,000 rpm for 10 minutes to obtain a further supernatant, which was designated platelet poor plasma (PPP).
The number of platelets in the PRP was adjusted to 3×10^5 plate/μl by adding the PPP. A test sample was added to the PRP. After 1 minute, a prepared aqueous solution of ADP (adenosine diphosphate, Sigma Corp.) was added at the final concentration of 5 μM, or an aqueous solution of collagen (Sigma Corp.) was added at the final concentration of 5 μg/ml. The agglutination reaction was measured by using an agglico meter (NBS HEMA TRACER VI). The inhibition rate was calculated by comparing the maximum optical transmittance in samples with the compound to the maximum optical transmittance in samples with a physiological saline.
The compounds used were compounds of the present invention (FAS, and the compound of formula [I] where R^1 is hydroxy (Japanese Patent Unexamined Publication No. 61-152658) and adenosine (Sigma Corp.).

rabbit plasma = assay: Blood coagulation time (APTT, PT); design: species or system rabbit (male, Japanese white); settings: for PT / APTT: N=4, mean ± S.E.; for PT: control 5.8 ± 0.1; for APTT: control 21.2 ± 0.5
Experimental: a) Blood coagulation time:
Rabbits (male, Japanese white, body weight 2-3 kg, Oriental Yeast Co.) were used. […] After adding the test compound to the resultant plasma, activated partial thromboplastin time (APTT) and prothrombin time (PT) were measured by using a coagulometer (Coagtec, Coagtec TE600, EMRA; KC-10A, Baxter).

parainfluenza virus = assay: Inhibitory action for plaque formation of parainfluenza virus; format: cell-based; settings: mean of two, control 51.5
Experimental: as §1, §2, §3, §4, §5

Acute toxicity in mice = assay: Acute toxicity in mice; design: species or system mouse (Slc: ddy, 5 weeks); settings: mouse, in vivo, iv, i. v., male
Experimental: Acute toxicity of the compounds of the present invention were conducted on rats and mice, and low toxicity was confirmed.

## OC[C@@H]1CC[C@H](n2cnc3c(O)ncnc32)O1 [ddI, 2', 3'-dideoxyinosine]
HIV-1
  IC50: ~100 µM

## CC1CNCCN1S(=O)(=O)c1cccc2cnccc12 (centres unmarked) [H-7, 1-(5-isoquinoryl-sulfonyl)-2-methyl-piperazine]
[1]
  inhibition at 30 µM: ~50%
  inhibitory effects on syncytia formation: no inhibitory effects were observed
[2]
  inhibitory activity for Env expression: no significant inhibitory activity for Env expression
HIV
  effectiveness against HIV infectious disease: has not been found to be clearly effective
[3]
  inhibitory activity for syncytium formation: no inhibitory activity for syncytium formation

## CN([C@@H](Cc1ccc(OS(=O)(=O)c2cccc3cnccc23)cc1)C(=O)N1CCN(c2ccccc2)CC1)S(=O)(=O)c1cccc2cnccc12 [KN-62, 1-(N,O-bis-[5-isoquinolinylsulfonyl]-N-methyl-L-tyrosyl)-4-phenyl-piperazine]
[1]
  inhibition at 30 µM: ~75%
  inhibitory effects on syncytia formation: no inhibitory effects were observed
[2]
  inhibitory activity for Env expression: weak inhibitory activity for Env expression
[3]
  inhibitory activity for syncytium formation: no inhibitory activity for syncytium formation

## O=S(=O)(c1cccc2c(O)nccc12)N1CCCNCC1 [Compound of the formula [I] (R^1 = OH)]
[4]; 1.6 μg/ml
  Plaque No.: 51
[4]; 6.3 μg/ml
  Plaque No.: 51
[4]; 25 μg/ml
  Plaque No.: 56
[4]; 100 μg/ml
  Plaque No.: 37.5
Rabbit platelets; 10 μM
  Platelet aggregation rate, ADP: 63.0 ± 2.3%
  Platelet aggregation rate, Collagen: 80.0 ± 1.7%
Rabbit platelets; 30 μM
  Platelet aggregation rate, ADP: 63.8 ± 2.9%
  Platelet aggregation rate, Collagen: 79.3 ± 1.1%
Rabbit platelets; 100 μM
  Platelet aggregation rate, ADP: 64.3 ± 3.8%
  Platelet aggregation rate, Collagen: 81.0 ± 1.2%
Rabbit plasma
  effect on blood coagulation time (APTT, PT): no effect on blood coagulation time
Rabbit plasma; 30 μM
  PT: 5.6 ± 0.1 s
  APTT: 20.2 ± 0.4 s
Rabbit plasma; 100 μM
  PT: 5.5 ± 0.1 s
  APTT: 20.1 ± 0.4 s
Parainfluenza virus; 25 μg/ml
  Plaque No.: 59
Parainfluenza virus; 100 μg/ml
  Plaque No.: 4.5
Acute toxicity in mice
  LD50: 119 mg/kg
HIV-1
  inhibitory activity of syncytium formation of HIV-1: inhibited the formation of syncytium of HIV-1

## Nc1ncnc2c1ncn2[C@@H]1O[C@H](CO)[C@@H](O)[C@H]1O [Adenosine, adenosine]
Rabbit platelets
  effect on ADP coagulation and collagen coagulation: suppressed ADP coagulation and collagen coagulation

## Cc1cn([C@H]2C[C@H](N=[N+]=[N-])[C@@H](CO)O2)c(=O)[nH]c1=O [AZT, 3'-azido-3'-deoxythymidine]
HIV-1
  IC50: ~50 µM

## Heparin
Rabbit plasma
  effect on blood coagulation time (APTT, PT): clearly extended APTT and PT
